Data: US11439147B2, “3-pyridyl oxyaniline compound and use of same” (Sumitomo Chemical Company, Limited, priority 2016, dated 2022)

Assays:
Type in all cases: in vivo
[1] = system: Arabidopsis thaliana; assay: Inhibitory activity on emergence of Arabidopsis thaliana; settings: ten days after sowing, visual index 0: no effect to 100: no emergence
Protocol: Test Example 4: Inhibitory Activity on Emergence of Arabiclopsis thaliana Each well of 24 well microtiter plates was matted with a filter paper, and to the filter paper was added 150 μL of distilled water. To the distilled water was added a solution in which the present compound, the compound A, or the compound B was dissolved in dimethyl sulfoxide so that the concentration of each of the chemicals would be values indicated in Table 4. Next, seeds of Arabidopsis thaliana were sown into each well and grown under the condition that a cultivation at 25° C. under lighting for 16 hours and a successive cultivation at 25° C. under dark for 8 hours were repeated. Ten days after sowing, the inhibitory activity on emergence of Arabidopsis thaliana was visually evaluated by classifying the activity into 0 to 100 indices (0: no effect to 100: no emergence).

[2] = system: Amaranthus retroflexus; assay: Post-emergence treatment test in a farmland (pot, foliar spray); settings: application rate 4 kg/ha; two-leaf stage, sprayed; nine days after spraying; visual, 11 stages 0 (no effect) to 10 (complete kill)
Protocol: Test Example 1: Post-emergence treatment test in a farmland
Nursery soil was put in a plastic pot measuring 8 cm in diameter and 6.5 cm in height, and in the pot, seeds of Amaranthus retroflexus were sown, and then covered with soil of about 0.5 cm thickness, and the plants were grown in a greenhouse. When the Amaranthus retroflexus plants were grown to two-leaf stage, a diluted solution containing any one of the present compound, the compound A, or the compound B was uniformly sprayed on the whole Amaranthus retroflexus plants so that the application rates of the chemicals would be values indicated in Table 1.
Here the diluted solution was prepared by dissolving the present compound, the compound A, or the compound B in dimethylformamide solution containing 2% of Tween 20 (polyoxyethylene sorbitan fatty acid ester) (manufactured by MP Biomedicals Inc.) and then diluting the solution with deionized water.
The Amaranthus retroflexus plants that were sprayed with the diluted solution containing the present compound, the compound A, or the compound B were grown in a greenhouse. Nine clays after spraying, the efficacy for controlling Amaranthus retroflexus plants was observed, thereby examining a herbicidal effect. Here the herbicidal effect was visually observed and evaluated by classifying the effect into 11 stages from 0 (no effect) to 10 (complete kill).

[3] = system: Lindernia procumbens; assay: Herbicidal effect, pot test in greenhouse (paddy water treatment); settings: twelve days after treatment, visual index 0 (no effect) to 100 (complete kill)
From the text: (§1) Herbicidal effect against Echinochloa oryzicola and Lindernia procumbens (Pot test in greenhouse) Soil was put in a plastic pot (φ 5 cm×5.5 cm), and soil was puddled, and the plastic pot was allowed to stand for 2 days, Lindernia procumbens seeds were mixed with soil, and sown to the surface of puddled soil in the pot. On the same day, the sprouted seeds of Echinochloa oryzicola were sown into about 0.5 cm depth from the soil surface of the pot, and the submerged depth was adjusted to about 2 cm. Treatment solutions containing the present, compound, the compound A, or the compound B were prepared by dissolving the present compound, the compound A, or the compound B in acetone, followed by diluting the resulting solutions with distilled water. On the same day as the sowing of Echinochloa oryzicola and Lindernia procumbens, the treatment solution containing the present compound, the compound A, or the compound B was poured into paddy water in the pot so that the application rates of the chemicals would be values indicated in Table 2. Twelve days after the treatment, the herbicidal effect on weeds was visually observed by classifying the effect into 0 to 100 indices (0 (no effect) to 100 (complete kill)).

[4] = system: Echinochloa oryzicola; assay: as above; settings: twelve days after treatment, visual index 0 (no effect) to 100 (complete kill)
From the text: as §1

[5] = system: Echinochloa oryzicola; assay: Hydroponic test of Echinochloa oryzicola; settings: ten days, visual index 0 (no effect) to 100 (complete kill)
Protocol: Test Example 3: Hydroponic Test of Echinochloa oryzicola
Two (2) mL of distilled water was poured into a plastic tube (2.5 cm in inside diameter×10 cm in height). To the distilled water was added a solution in which the present compound or the compound A was dissolved in dimethyl sulfoxide to prepare the treatment solutions so that, the treatment concentration thereof would be values indicated in table 3. Next, four grains of sprouted Echinochloa oryzicola seeds were put in each treatment solution. The tubes were covered with parafilm, and the seeds were grown under the condition that a cultivation at 25° C. under lightning for 16 hours and a successive cultivation at 25° C. under dark for 8 hours were repeated. Ten days after the addition of the Echinochloa oryzicola seeds, the herbicidal effect on Echinochloa oryzicola was visually observed by classifying the effect into 0 to 100 indices (0 (no effect) to 100 (complete kill)).

[6] = treatment concentration 500 ppm
[7] = treatment concentration 1000 ppm
[8] = application rate 50 g/a into paddy water
[9] = application rate 100 g/a into paddy water
[10] = treatment concentration 125 ppm
[11] = treatment concentration 250 ppm

Row | SMILES | Inhibitory Activity on Emergence [1, 6] | Inhibitory Activity on Emergence [1, 7] | Herbicidal Effect [2] | Herbicidal Effect Lindernia procumbens [3, 8] | Herbicidal Effect Lindernia procumbens [3, 9] | Herbicidal Effect Echinochloa oryzicola [4, 8] | Herbicidal Effect Echinochloa oryzicola [4, 9] | Herbicidal Effect [5, 10] | Herbicidal Effect [5, 11] | Herbicidal Effect [5, 6]
1 | CCOC(=O)COc1ncccc1Oc1cc(N)c(F)cc1Cl [Compound A, 4-chloro-2-fluoro-5-{2-(ethoxycarbonyl)methoxy-3-pyridyloxy}aniline] | 0 | 0 | 1 | 0 | 0 | 0 | 10 | 0 | 0 | 0
2 | CCOC(=O)COc1ncccc1Oc1cc(NC(=O)CC(=O)C(F)(F)F)c(F)cc1Cl [Compound B] | 0 | 0 | 3 | 0 | 0 | 0 | 0 |  |  | 
3 | CCOC(=O)COc1ncccc1Oc1cc(NC(=O)C=C(Nc2cc(Oc3cccnc3OCC(=O)OCC)c(Cl)cc2F)C(F)(F)F)c(F)cc1Cl [Present compound] | 100 | 100 | 8 | 50 | 60 | 100 | 100 | 100 | 100 | 100
